Source: PMC8708875 (Pharmaceutics, 2021)
Read-outs that look alike come from different tables or passages of the source. Square brackets hold non-standard residues; d marks the D form. Ends that are not written are not given here. Peptide text beside a SMILES is read from it.

Legend:
in vitro [1] = type: in vitro ADME, mouse; conditions: other tissue homogenate; mouse liver crude extract 30 µg; peptide 50 µM; 20 min; 250 µL TBS (0.025 M Tris-HCl, 0.125 M NaCl); RP-HPLC C18, UV 214 nm; average of three independent determinations; read-out: % of peptide degraded, Liver Extract (30 µg)
Experimental: (§1) Peptide hydrolyses were analyzed by reverse phase liquid chromatography (HPLC) using a C18 µBond-pak column (4.6 × 250 mm; Millipore Corp.) with a linear gradient of 5–65% acetonitrile in 0.1% TFA for 20 min at a flow rate of 1 mL/min, and absorbance monitored at a wavelength of 214 nm, as previously described. Cleaved peptide bonds were identified by mass spectrometry sequencing after isolating the cleavage fragments manually after HPLC, as previously described (data not shown). Control enzyme assays were conducted using bradykinin ([…]; 50 µM) as a standard substrate.

in vitro [2] = type: in vitro ADME; conditions: other tissue homogenate, mouse kidney crude extract 3 µg, peptide 50 µM, 250 µL TBS (0.025 M Tris-HCl, 0.125 M NaCl), RP-HPLC C18, UV 214 nm, average of three independent determinations, read-out: % of peptide degraded, Kidney Extract (3 µg)
Experimental: as §1
(IGF1) Rev: AGAGGTGTGAAGAC-
(GLUT4) Rev: CAGCTCCTATGGTGGCG-
Glyceraldehyde 3-phosphate de- TGCCAGCCTCGTCC 75 BC_085275 hydrogenase (GAPDH) Rev: CAGGCGCCCAATAC-
Figure S1. Typical experiments to evaluate the enzymatic stability of Ric4 and derivatives on kidney tissue extracts. In order to determine if the peptides investigated herein were substrates of tissue peptidases, 50 μM of each peptide was individually incubated for 20 min in the presence of increas-ing crude kidney tissue extracts (0 µg, 3 µg or 30 µg, as indicated), in a final volume of 250 μl of 0,025 M Tris-HCl, containing 0.125 M NaCl (TBS). Peptide hydrolyses were analyzed by reverse phase liquid chromatography (HPLC) using a C18 µBond-pak column (4.6 x 250 mm; Millipore Corp.) with a linear gradient of 5-65% acetonitrile in 0.1 % TFA for 20 min at a flow rate of 1 mL/min, (1 picture or pasted object on this page, not shown here)

neurolysin (Nln) = test: Nln (0.1 ng), homogeneous recombinant enzyme
THOP1 [3] = test: THOP1 (0.1 ng), homogeneous recombinant enzyme
C57BL/6N (WT) mice = type: in vivo, mouse
Experimental: In vivo experiments were conducted with male C57BL/6N (WT) mice 12–16 weeks-old (University of São Paulo Medical School Animal Facility, SP, Brazil). Mice were maintained in individual ventilated cages (Amresco, SP, Brazil), under standardized conditions with an artificial 12 h dark–light cycle, with free access to standard chow (Nuvital Nutrientes S.A., Colombo, PR, Brazil) and drinking water ad libitum. The number of animals used was the minimum necessary to obtain statistically significant results and they were maintained and used in accordance with the guidelines of the National Council for Control of Animal Experiments (CONCEA), following international norms of animal care and maintenance. Thus, we hereby state that all experimental protocols were previously approved by University of São Paulo Ethic committee councils from Biomedical Science Institute (approval number for mice experimentation ICB/USP 22/2017).
WT mice were fasted for 12 h and blood samples were taken before and at 15, 30, 60, 90, and 120 min after the intraperitoneal (ip) injection of 2 g/kg glucose. Glycemia was measured using a glucometer (Accu-Check Performa, ROCHE, São Paulo, Brazil). Peptides were evaluated to affect glucose uptake either after ip or oral (by gavage) administration. After 20 min glucose was administrated (blood glucose levels reached 400 mg/dL), animals received ip or oral administration of either saline, insulin (0.75 IU/kg), or peptide (Ric2 or Ric4; 600 µg/kg). In addition, a group of animals received oral administration of either water or Ric2 or Ric4 (600 µg/kg). Glycemia was measured as indicated following vehicle, insulin, or peptide administration.

[4] = tested on: differentiated C2C12 cells; test: Glucose uptake in C2C12 myotubes; type: cell-based, mouse; conditions: peptides 100 µM, insulin 100 nM; 30 min, 37 °C; 3H-glucose (1 µCi/mL) or 2-NBDG (80 µM)
[5] = crude tissue extract (liver, 30 µg); conditions: WT mice, up to 20 min
[6] = crude tissue extract (kidney, 3 µg); conditions: WT mice, up to 20 min
THOP1 [7] = biological target: THOP1 (Rattus norvegicus, UniProt P24155); type: in vitro ADME
Sequence of THOP1 (Rattus norvegicus, UniProt P24155) (P24155 whole entry): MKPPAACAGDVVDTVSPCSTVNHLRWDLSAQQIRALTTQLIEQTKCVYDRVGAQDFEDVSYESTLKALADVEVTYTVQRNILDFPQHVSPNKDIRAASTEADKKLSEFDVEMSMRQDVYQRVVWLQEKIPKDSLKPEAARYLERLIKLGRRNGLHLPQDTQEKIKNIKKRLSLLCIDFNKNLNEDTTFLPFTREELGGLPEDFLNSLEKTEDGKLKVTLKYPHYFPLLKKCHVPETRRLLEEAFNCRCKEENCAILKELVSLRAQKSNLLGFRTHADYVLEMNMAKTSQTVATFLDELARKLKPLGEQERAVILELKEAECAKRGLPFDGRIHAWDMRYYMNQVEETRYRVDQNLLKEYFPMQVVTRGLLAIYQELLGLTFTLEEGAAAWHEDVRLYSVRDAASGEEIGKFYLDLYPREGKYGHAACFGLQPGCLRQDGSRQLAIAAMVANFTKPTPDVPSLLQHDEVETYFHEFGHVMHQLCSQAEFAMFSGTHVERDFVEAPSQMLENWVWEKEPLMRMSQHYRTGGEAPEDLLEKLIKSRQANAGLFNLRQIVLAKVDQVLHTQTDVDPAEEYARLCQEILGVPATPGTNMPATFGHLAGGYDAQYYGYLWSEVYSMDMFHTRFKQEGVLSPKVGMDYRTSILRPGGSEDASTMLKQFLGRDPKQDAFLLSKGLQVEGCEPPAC
Experimental: as §1

Nln = type: in vitro ADME
Experimental: as §1

CC(=O)N[C@@H](CC(C)C)C(=O)N[C@@H](C)C(=O)N[C@@H](CO)C(=O)N[C@H](C(=O)N[C@@H](CO)C(=O)N[C@H](C(=O)N[C@H](C(=O)N[C@H](CC(C)C)C(=O)N[C@H](C(=O)N[C@@H](CO)C(=O)N[C@@H](CCCCN)C(=O)N[C@@H](Cc1ccc(O)cc1)C(=O)N[C@@H](CCCNC(=N)N)C(N)=O)[C@@H](C)O)C(C)C)[C@@H](C)O)C(C)C [RIC4-16] (Ac-LASVSTV[dL]TSKYR-NH2)
metabolised at 20 min (in vitro [1]): 26%
metabolised at 20 min (in vitro [2]): 12.5%

Ac-LASVSTVLTSKYR-NH2
not cleaved (neurolysin (Nln)): 1.18 % of peptide degraded
not cleaved (THOP1 [3]): 4.55 % of peptide degraded

Ac-LASVSTVLTSKYR-NH2 [RIC4-2]
metabolised at 20 min (in vitro [1]): 70.2%
metabolised at 20 min (in vitro [2]): 60%

Ac-LASVSTVLTSKYR-NH2 [Ric4-2, Ric4 derived peptide]
blood glucose levels in GTT, oral administration (C57BL/6N (WT) mice; WT mice fasted 12 h, glucose 2 g/kg ip at time zero, peptide 600 µg/kg orally by gavage): ability to reduce blood glucose levels

Ac-LASVSTV[dL]TSKYR-NH2 [Ric4-16, Ric4 derived peptide]
glucose uptake in differentiated C2C12 cells [4]: efficiently induced glucose uptake
oral bioavailability (C57BL/6N (WT) mice; mouse, in vivo, po): no oral bioavailability

LASVSTVLTSKYR
not cleaved (neurolysin (Nln)): 4.69 % of peptide degraded
cleaved bond [5]: Leu8-Thr9, first_seen
not cleaved (THOP1 [3]): 2.22 % of peptide degraded
cleaved bond [6]: Leu8-Thr9, first_seen

LASVSTVLTSKYR [RIC4]
metabolised at 20 min (in vitro [1]): 62.4%
metabolised at 20 min (in vitro [2]): 22.6%

RPPGFSPFR [Bradykinin]
% of peptide degraded, THOP1 (THOP1 [7]): 11.93%
% of peptide degraded, Nln (Nln): 14.51%
